IC50, efflux ratio and Papp data for 14 compounds are collected here from US12303509B2, “Compounds for the treatment of BRAF-associated diseases and disorders” (Pfizer Inc., priority 2020, dated 2025).

Counter-ions that a name gives are not always drawn.

Series [1] concerns the target full-length FLAG-tagged B-Raf(V600E) (Homo sapiens (Human), UniProt P15056, V600E). As to the kind of experiment: BRAF V600E enzyme assay (TR-FRET competitive displacement). In kind it is binding. The conditions noted are these: averaged IC50; TR-FRET tracer displacement, 60 min. The method, then: A competitive displacement assay was configured for B-Raf that monitors the amount of a fluorescently-tagged “tracer” bound to B-Raf via TR-FRET from an anti-tag Eu-labeled antibody also bound to B-Raf. For full-length FLAG-tagged B-Raf(V600E), the assay mixtures consisted of 25 mM K^+HEPES, pH 7.4, 10 mM MgCl2, 0.01% Triton X-100, 1 mM DTT, 2% DMSO (from compound), 50 nM Tracer 1710 (ThermoFisher, PR9176A), 0.5 nM Eu anti-FLAG (M2)-cryptate Ab (Cisbio, 61FG2KLB) and 5 nM full-length, N-terminally FLAG-tagged B-Raf(V600E) (Origene Technologies, TP700031. Compounds were typically diluted in DMSO across an 11-point dosing range created using a 3-fold serial dilution protocol at a top dose of 10 μM. The assay was run in 384-well, polystyrene, low-volume, non-treated, white microtiter plates (Costar 4512) in a final volume of 12 μL. Low control wells included 1 μM of a potent B-Raf inhibitor as a control. The assays were incubated at ambient temperature (typically 22° C.) for 60 min and then read on a PerkinElmer EnVision microplate reader using standard TRF settings (λEx=320 nm, λEm=615 & 665 nm). The ratioed counts (665 nm/615 nm) were converted to percent of control (POC) using the following equation:
[formula] • where: • Xmax Average Uninhibited Controls • Xmin Average Background
A 4-parameter logistic model was the fit to the POC data for each compound. From that fit, the IC50 was estimated and is defined as the concentration of compound at which the best-fit curve crosses 50 POC.

The test system of the next series is A375 cells. The experiment in a line: Cellular phospho-ERK inhibition assay in A375 cells. Format: cell-based. The conditions noted are these: Homo sapiens, A-375, A375 cells (head prints A357), 2 hours treatment, read-out: A357 cell IC50. The protocol:
A375 and H1755 cells were obtained from the American Type Culture Collection (ATCC, Rockville, MD). A375 cells were maintained in DMEM growth medium containing 10% FBS. H1755 cells were maintained in RPMI growth medium containing 10% FBS.
Cells were harvested according to standard protocols, counted and plated onto flat-bottom, 96-well tissue culture plates (Costar #3599) at 2.5×10^4 cells/well for A375 cells and 1.5×10^4 cells/well for H1755 cells in 100 μL/well of growth medium containing 10% FBS. After an overnight incubation at 37° C. with 5% CO2 cells were treated for 2 hours at 37° C., 5% CO2 with compounds prepared as a 9-point, 1:3.33 fold dilution series with final compound concentrations ranging from 66 pM-10 μM and a constant DMSO concentration of 0.25%. Control wells contained either 0.25% DMSO alone (uninhibited control) or 10 μM binimetinib (complete inhibition control). The levels of phosphorylated ERK are determined using an In Cell Western protocol: following compound incubation, growth medium was discarded, and cells were fixed with 0.4% formaldehyde in PBS for 20 minutes at room temperature. Cells were permeabilized with 100% methanol for 10 minutes at room temperature. Plates were washed with PBS containing 0.05% Tween-20 and blocked for 1 hour at room temperature with LI-COR Blocking Buffer (LI-COR Biosciences; Cat #927-40000). Plates were then incubated for 2 hours at room temperature with 50 μL of a 1:400 dilution of anti-phospho-ERK1/2 (Thr202/Tyr204) (Cell Signaling; Cat #9101) and a 1:1000 dilution of anti-GAPDH (Millipore; Cat #MAB374) in LI-COR blocking buffer containing 0.05% Tween-20. Plates were washed with PBS containing […] Tween-20 then incubated at room temperature for 1 hour with 50 μL of a 1:1000 dilution of anti-rabbit AlexaFluor 680 (Life Technologies; Cat #A21109) and a 1:1000 dilution of anti-mouse IRDye 800CW (LI-COR; Cat #926-32210) in LI-COR blocking buffer containing 0.05% Tween-20. Plates were analyzed by reading on an Odyssey CLx infrared scanner. For each well, the phospho-ERK signal was normalized to the GAPDH signal and converted to POC using the following equation:
[formula] • Where: • Xmax Average Uninhibited Controls • Xmin Average Complete Inhibition Controls IC50 values were then calculated using a 4-parameter fit in XLfit software and are provided in Table A1.

The target of a further series is P-gp (MDR1) (Homo sapiens (Human), UniProt P08183). The experiment in a line: MDR1 LLC-PK1 permeability assay: efflux ratio. The conditions noted are these: pig. In kind it is in vitro ADME. The source says:
(§1) Final organic concentration in the assay was 1%.

Series [2] in a line: MDR1 LLC-PK1 and BCRP MDCKII permeability assay: permeability coefficient (Papp). In kind it is in vitro ADME.
Text: as §1

Another series deals with BCRP (Homo sapiens (Human), UniProt Q9UNQ0). As to the kind of experiment: BCRP MDCKII permeability assay: efflux ratio. Conditions: dog. In kind it is in vitro ADME.
Chain of BCRP (Q9UNQ0 whole entry): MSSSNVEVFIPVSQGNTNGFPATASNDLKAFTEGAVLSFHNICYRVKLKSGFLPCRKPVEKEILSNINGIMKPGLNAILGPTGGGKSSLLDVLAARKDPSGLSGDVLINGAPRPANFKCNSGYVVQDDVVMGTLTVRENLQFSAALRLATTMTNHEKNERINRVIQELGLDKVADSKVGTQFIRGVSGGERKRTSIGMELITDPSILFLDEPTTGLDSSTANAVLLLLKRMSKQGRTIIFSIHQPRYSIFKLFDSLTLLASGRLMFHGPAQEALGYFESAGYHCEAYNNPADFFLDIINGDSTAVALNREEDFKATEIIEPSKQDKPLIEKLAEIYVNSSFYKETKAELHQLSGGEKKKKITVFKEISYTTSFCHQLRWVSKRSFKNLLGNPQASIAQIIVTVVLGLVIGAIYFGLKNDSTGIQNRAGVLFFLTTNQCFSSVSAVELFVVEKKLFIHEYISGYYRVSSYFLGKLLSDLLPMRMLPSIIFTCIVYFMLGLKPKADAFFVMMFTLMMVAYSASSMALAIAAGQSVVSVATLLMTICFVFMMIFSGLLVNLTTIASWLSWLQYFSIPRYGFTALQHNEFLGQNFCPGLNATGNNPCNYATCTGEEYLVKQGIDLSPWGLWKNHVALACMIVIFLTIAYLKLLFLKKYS

Chain of P-gp (MDR1) (P08183 whole entry, species assumed): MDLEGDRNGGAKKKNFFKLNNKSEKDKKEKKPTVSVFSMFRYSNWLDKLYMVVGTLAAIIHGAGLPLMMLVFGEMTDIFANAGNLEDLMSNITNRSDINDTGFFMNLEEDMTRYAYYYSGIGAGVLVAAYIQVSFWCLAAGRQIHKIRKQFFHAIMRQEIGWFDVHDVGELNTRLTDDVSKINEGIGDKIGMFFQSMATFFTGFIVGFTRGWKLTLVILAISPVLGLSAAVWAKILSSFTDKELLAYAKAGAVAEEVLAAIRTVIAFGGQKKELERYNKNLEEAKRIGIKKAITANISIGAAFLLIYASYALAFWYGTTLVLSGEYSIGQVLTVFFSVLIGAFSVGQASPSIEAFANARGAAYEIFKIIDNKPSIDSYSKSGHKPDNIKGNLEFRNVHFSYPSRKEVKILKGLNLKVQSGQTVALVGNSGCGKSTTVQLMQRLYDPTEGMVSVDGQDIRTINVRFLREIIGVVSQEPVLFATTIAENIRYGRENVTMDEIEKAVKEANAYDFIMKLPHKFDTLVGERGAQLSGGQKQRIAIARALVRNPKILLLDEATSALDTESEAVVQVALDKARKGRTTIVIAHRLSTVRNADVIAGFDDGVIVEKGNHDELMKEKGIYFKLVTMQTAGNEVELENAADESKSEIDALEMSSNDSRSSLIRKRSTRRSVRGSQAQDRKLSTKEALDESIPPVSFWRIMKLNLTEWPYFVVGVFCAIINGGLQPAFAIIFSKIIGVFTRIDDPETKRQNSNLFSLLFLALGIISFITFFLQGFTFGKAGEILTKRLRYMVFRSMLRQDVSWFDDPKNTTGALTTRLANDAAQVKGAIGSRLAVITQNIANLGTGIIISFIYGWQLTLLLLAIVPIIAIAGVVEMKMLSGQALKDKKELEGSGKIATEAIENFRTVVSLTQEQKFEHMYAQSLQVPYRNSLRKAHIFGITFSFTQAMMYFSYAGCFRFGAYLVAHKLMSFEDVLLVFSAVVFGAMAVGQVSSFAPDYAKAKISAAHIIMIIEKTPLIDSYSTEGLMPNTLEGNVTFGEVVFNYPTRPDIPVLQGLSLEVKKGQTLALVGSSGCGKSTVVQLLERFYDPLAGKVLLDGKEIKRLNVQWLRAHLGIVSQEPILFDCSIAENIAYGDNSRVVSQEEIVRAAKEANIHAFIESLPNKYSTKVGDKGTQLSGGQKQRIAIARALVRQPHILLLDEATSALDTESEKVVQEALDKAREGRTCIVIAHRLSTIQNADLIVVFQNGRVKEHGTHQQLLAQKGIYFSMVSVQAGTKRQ
Chain of full-length FLAG-tagged B-Raf(V600E) (P15056 whole entry V600E): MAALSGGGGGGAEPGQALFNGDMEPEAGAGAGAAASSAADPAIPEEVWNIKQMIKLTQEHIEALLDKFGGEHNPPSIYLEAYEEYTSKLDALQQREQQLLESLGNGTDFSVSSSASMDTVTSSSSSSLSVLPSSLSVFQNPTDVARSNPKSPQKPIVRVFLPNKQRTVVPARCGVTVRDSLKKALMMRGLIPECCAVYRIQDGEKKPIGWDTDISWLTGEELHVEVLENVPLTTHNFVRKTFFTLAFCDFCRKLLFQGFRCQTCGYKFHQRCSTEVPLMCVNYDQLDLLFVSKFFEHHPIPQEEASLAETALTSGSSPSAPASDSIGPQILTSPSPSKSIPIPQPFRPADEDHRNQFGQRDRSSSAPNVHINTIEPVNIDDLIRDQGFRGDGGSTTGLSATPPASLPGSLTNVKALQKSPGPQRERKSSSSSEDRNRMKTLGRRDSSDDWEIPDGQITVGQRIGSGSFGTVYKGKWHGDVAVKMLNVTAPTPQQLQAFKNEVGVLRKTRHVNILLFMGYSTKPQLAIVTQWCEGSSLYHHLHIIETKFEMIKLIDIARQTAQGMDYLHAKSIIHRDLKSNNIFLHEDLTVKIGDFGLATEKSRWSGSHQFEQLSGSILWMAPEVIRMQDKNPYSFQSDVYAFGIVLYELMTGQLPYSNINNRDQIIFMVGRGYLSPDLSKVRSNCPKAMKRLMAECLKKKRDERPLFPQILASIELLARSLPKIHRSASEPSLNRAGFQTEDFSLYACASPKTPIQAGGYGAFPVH

As to `CO[C@H]1CN(S(=O)(=O)Nc2ccc(F)c(Nc3ccc4ncn(C)c(=O)c4c3C)c2Cl)C[C@@H]1F` (relative stereo) [Example 78, (trans)-N-(2-chloro-3-((3,5-dimethyl-4-oxo-3,4-dihydroquinazolin-6-yl)amino)-4-fluorophenyl)-3-fluoro-4-methoxypyrrolidine-1-sulfonamide], the IC50 in series [1] worked out at 114 nM; with A375 cells, 189 nM. Besides, the values for the efflux ratio at 2 h, 1 µM at P-gp (MDR1) and on BCRP were 1.5 and 1, respectively. In addition, the apparent permeability coefficient (Papp) at 2 h, 1 µM in series [2] was 34 ×10⁻⁶ cm/s.

Consider `Cc1c(Nc2c(F)ccc(NS(=O)(=O)N3C[C@H](F)[C@@H](F)C3)c2Cl)ccc2ncn(C)c(=O)c12` (relative stereo) [Example 85, (trans)-N-(2-chloro-3-((3,5-dimethyl-4-oxo-3,4-dihydroquinazolin-6-yl)amino)-4-fluorophenyl)-3,4-difluoropyrrolidine-1-sulfonamide], for which the figures for the IC50 (in series [1]; with A375 cells) were 52 nM and 178 nM, respectively. The values for the efflux ratio at 2 h, 1 µM on P-gp (MDR1) and at BCRP were 1.7 and 0.9, respectively. The compound also gave a Papp at 2 h, 1 µM in series [2] of 26 ×10⁻⁶ cm/s.

Take `Cc1c(Nc2c(F)ccc(NS(=O)(=O)N3CCOCC3)c2Cl)ccc2ncn(C)c(=O)c12` [Example 79, N-(2-chloro-3-((3,5-dimethyl-4-oxo-3,4-dihydroquinazolin-6-yl)amino)-4-fluorophenyl)morpholine-4-sulfonamide]: the IC50 was found to be 111 nM in series [1] and 138 nM in the series on A375 cells. The values for the efflux ratio at 2 h, 1 µM on P-gp (MDR1) and on BCRP were 1.3 and 1, respectively. For the same compound, in series [2], the Papp at 2 h, 1 µM is 28 ×10⁻⁶ cm/s.

With `Cc1c(Nc2c(F)ccc(NS(=O)(=O)N3CCC4(CC4)C3)c2Cl)ccc2ncn(C)c(=O)c12` [Example 82, N-(2-chloro-3-((3,5-dimethyl-4-oxo-3,4-dihydroquinazolin-6-yl)amino)-4-fluorophenyl)-5-azaspiro[2.4]heptane-5-sulfonamide trifluoroacetate], the IC50 in series [1] came out at 69 nM; with A375 cells it was 193 nM. Moreover, the figures for the efflux ratio at 2 h, 1 µM at P-gp (MDR1) and at BCRP were 1.2 and 1, respectively. In series [2], this compound registered a Papp at 2 h, 1 µM of 13 ×10⁻⁶ cm/s.

Take `Cc1c(Nc2c(F)ccc(NS(=O)(=O)N3CCCCC3)c2Cl)ccc2ncn(C)c(=O)c12` [Example 84, N-(2-chloro-3-((3,5-dimethyl-4-oxo-3,4-dihydroquinazolin-6-yl)amino)-4-fluorophenyl)piperidine-1-sulfonamide]: the IC50 was determined as 53 nM in series [1] and 133 nM in the series on A375 cells. Also, the efflux ratio at 2 h, 1 µM on P-gp (MDR1) and at BCRP was 0.8 in each case. This compound also gave a Papp at 2 h, 1 µM in series [2] of 18 ×10⁻⁶ cm/s.

As for `Cc1c(Nc2c(F)ccc(NS(=O)(=O)N3CC4CC4(C)C3)c2Cl)ccc2ncn(C)c(=O)c12` (stereo not drawn) [Example 88], the IC50 in series [1] stood at 27 nM; in the series on A375 cells, 203 nM. The efflux ratio at 2 h, 1 µM at P-gp (MDR1) was determined as 1.2; on BCRP it was 0.6. In series [2], the Papp at 2 h, 1 µM was 25 ×10⁻⁶ cm/s.

Take `Cc1c(Oc2c(F)ccc(NS(=O)(=O)N3CC4CC4C3)c2Cl)ccc2ncn(C)c(=O)c12` (stereo not drawn) [Example 91]: the IC50 in series [1] is 9 nM; in the series on A375 cells, 123 nM. In addition, the efflux ratio at 2 h, 1 µM was found to be 1.5 on P-gp (MDR1) and 0.8 at BCRP. Further, the Papp at 2 h, 1 µM in series [2] was determined as 17 ×10⁻⁶ cm/s.

`Cc1c(Nc2c(F)c(F)cc(NS(=O)(=O)N(C)C)c2Cl)ccc2ncn(C)c(=O)c12` [Example 98, N-(2-chloro-3-((3,5-dimethyl-4-oxo-3,4-dihydroquinazolin-6-yl)amino)-4,5-difluorophenyl)-(N,N-dimethyl)-sulfamide]: the IC50 came to 20 nM in series [1] and 49 nM in the series with A375 cells. Moreover, the efflux ratio at 2 h, 1 µM on P-gp (MDR1) and on BCRP was 1.1 throughout. Further, the Papp at 2 h, 1 µM in series [2] came out at 31 ×10⁻⁶ cm/s.

For `COCC1CN(S(=O)(=O)Nc2ccc(F)c(Oc3ccc4ncn(C)c(=O)c4c3C)c2Cl)C1` [Example 115, N-(2-chloro-3-((3,5-dimethyl-4-oxo-3,4-dihydroquinazolin-6-yl)oxy)-4-fluorophenyl)-3-(methoxymethyl)azetidine-1-sulfonamide], the IC50 in series [1] was 10 nM; in the series on A375 cells, 21 nM. Moreover, the efflux ratio at 2 h, 1 µM at P-gp (MDR1) was 1.6; on BCRP, 1.5. Moreover, the apparent permeability coefficient (Papp) at 2 h, 1 µM in series [2] is 28 ×10⁻⁶ cm/s.

Consider `Cc1c(Oc2c(F)ccc(NS(=O)(=O)N3CC(F)C3)c2Cl)ccc2ncn(C)c(=O)c12` [Example 116, N-(2-chloro-3-((3,5-dimethyl-4-oxo-3,4-dihydroquinazolin-6-yl)oxy)-4-fluorophenyl)-3-fluoroazetidine-1-sulfonamide], for which the IC50 in series [1] worked out at 4 nM; with A375 cells, 15 nM. For the same compound, the efflux ratio at 2 h, 1 µM amounted to 2.7 on P-gp (MDR1) and 2.1 on BCRP. Besides, the Papp at 2 h, 1 µM in series [2] amounted to 34 ×10⁻⁶ cm/s.

With `COC1CN(S(=O)(=O)Nc2ccc(F)c(Oc3ccc4ncn(C)c(=O)c4c3C)c2Cl)C1` [Example 117, N-(2-chloro-3-((3,5-dimethyl-4-oxo-3,4-dihydroquinazolin-6-yl)oxy)-4-fluorophenyl)-3-methoxyazetidine-1-sulfonamide], the IC50 in series [1] came out at 11 nM; in the series on A375 cells it was 23 nM. Besides, the efflux ratio at 2 h, 1 µM on P-gp (MDR1) and on BCRP was 1.5 throughout. In addition, the Papp at 2 h, 1 µM in series [2] amounted to 30 ×10⁻⁶ cm/s.

For the compound `Cn1cnc2ccc(Oc3c(F)ccc(NS(=O)(=O)N4CC(F)C4)c3Cl)c(F)c2c1=O` [Example 122, N-(2-chloro-4-fluoro-3-((5-fluoro-3-methyl-4-oxo-3,4-dihydroquinazolin-6-yl)oxy)phenyl)-3-fluoroazetidine-1-sulfonamide], the IC50 was found to be 2 nM in series [1] and 3 nM in the series on A375 cells. In addition, the figures for the efflux ratio at 2 h, 1 µM at P-gp (MDR1) and on BCRP were 2.3 and 7.8, respectively. The compound further displayed a Papp at 2 h, 1 µM in series [2] of 31 ×10⁻⁶ cm/s.

Turning to `COC1CN(S(=O)(=O)Nc2ccc(F)c(Oc3ccc4ncn(C)c(=O)c4c3F)c2Cl)C1` [Example 123, N-(2-chloro-4-fluoro-3-((5-fluoro-3-methyl-4-oxo-3,4-dihydroquinazolin-6-yl)oxy)phenyl)-3-methoxyazetidine-1-sulfonamide], the IC50 was 4 nM in series [1] and 5 nM in the series with A375 cells. Moreover, the efflux ratio at 2 h, 1 µM at P-gp (MDR1) was 2.5; at BCRP it was 5.4. Also, the Papp at 2 h, 1 µM in series [2] was determined as 32 ×10⁻⁶ cm/s.

Consider `Cc1c(Nc2c(F)ccc(NS(=O)(=O)N3CC4(CCC4)C3)c2Cl)ccc2ncn(C)c(=O)c12` [Example 157, N-(2-chloro-3-((3,5-dimethyl-4-oxo-3,4-dihydroquinazolin-6-yl)amino)-4-fluorophenyl)-2-azaspiro[3.3]heptane-2-sulfonamide trifluoroacetate], for which the IC50 in the series on A375 cells stood at 886 nM. Also, the efflux ratio at 2 h, 1 µM at P-gp (MDR1) and on BCRP was 1.2 in each case. In series [2], this compound registered a Papp at 2 h, 1 µM of 23 ×10⁻⁶ cm/s.
